Laboratory results reported in US6824998B2, “Compounds and methods for detecting tripeptidyl protease I” (University of Iowa Research Foundation, priority 2003, dated 2004).

Biological target: T1, TPP-1 (Mus musculus, UniProt O89023)
T1 construct: from tissue; host or cells: frozen 10 µm sections of paraformaldehyde-fixed tissues (e.g. kidney) from C57BL/6J mice (Jackson Laboratory)
T1 sequence (O89023 195-562): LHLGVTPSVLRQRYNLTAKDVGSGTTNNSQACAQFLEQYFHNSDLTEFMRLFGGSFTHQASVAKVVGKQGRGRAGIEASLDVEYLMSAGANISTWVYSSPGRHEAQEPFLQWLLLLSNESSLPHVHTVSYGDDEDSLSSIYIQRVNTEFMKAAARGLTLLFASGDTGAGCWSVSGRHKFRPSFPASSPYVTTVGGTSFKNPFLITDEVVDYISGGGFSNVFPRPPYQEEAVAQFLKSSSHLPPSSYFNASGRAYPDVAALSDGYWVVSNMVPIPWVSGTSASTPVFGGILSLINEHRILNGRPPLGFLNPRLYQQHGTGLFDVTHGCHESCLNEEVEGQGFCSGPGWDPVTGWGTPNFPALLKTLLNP
Assay: TPP-1 histochemical staining of frozen sections of murine tissues
Format: biochemical
Conditions: for Effectiveness of p-NBA and p-AA versus benzaldehyde with regard to precipitate density and color: aldehyde comparison; for Hydrolysis by endogenous TPP-1 in murine tissues / Specificity of TPP-1 detection / background activity: frozen sections of murine tissues
Description: C57BL/6J mice (6 to 8 weeks old) were purchased from the Jackson Laboratory (Bar Harbor, Me.). The mice were sacrificed with an overdose of anesthetic and then transcardially perfused with 0.9% (w/v) saline solution, followed by 2% paraformaldehyde in 0.2 M phosphate buffer. The tissues were removed and post-fixed for 2 hours. After fixation, the tissues were cryoprotected by immersion in 25% sucrose and frozen in OCT compound (Sakura Finetek U.S.A., Inc, Torrance, Calif.). Sections (10 μm) were cut with a cryostat and mounted onto gelatin-coated slides.
Sections were embedded in 0.5% celloidin, followed by incubation in substrate solutions. The sections were incubated in substrate solutions containing 1 mM of the compound, 1 mg/mL of benzaldehyde (BA) or p-anisaldehyde (p-AA) or p-nitrobenzaldehyde (p-NBA) in 0.1 M acetate buffer (pH 4.5) at 37° C. for 4 hours. Slides were rinsed and cover-slipped before viewing on a Leica DM RBE microscope equipped with a Spot-RT Digital Camera and associated software. For all experiments, tissue staining was repeated on a minimum of 5 sections/animal per compound. A minimum of three individual animals was tested to confirm consistency of the results.
Five different compounds, compounds 10, 16, 20, 27, and 31, were tested histochemically on frozen sections of murine tissues. The substrates were systematically compared for sensitivity to TPP-1 activity using conditions to control the rate of crystalline formation and diffusion of product.

Autofluorescence of the final reaction product of TPP-1 histochemical staining (Benzaldehyde) | Color of the final reaction product of TPP-1 histochemical staining (Benzaldehyde) | Effectiveness of p-NBA and p-AA versus benzaldehyde with regard to precipitate density and color | Hydrolysis by endogenous TPP-1 in murine tissues | Specificity of TPP-1 detection / background activity | Autofluorescence of the final reaction product of TPP-1 histochemical staining (p-Anisaldehyde) | Color of the final reaction product of TPP-1 histochemical staining (p-Anisaldehyde) | Autofluorescence of the final reaction product of TPP-1 histochemical staining (p-Nitrobenzaldehyde) | Color of the final reaction product of TPP-1 histochemical staining (p-Nitrobenzaldehyde) | SMILES | Sensitivity for detecting TPP-1 activity (combination with p-AA, purple precipitates in areas of high endogenous enzyme activity (e.g., kidney)) | Effectiveness as histochemical reagent for detecting TPP-1 (particularly when combined with p-anisaldehyde)
Autofluorescent | Yellow-green | more effective than benzaldehyde itself | readily hydrolyzed | low to no background activity | Autofluorescent | Yellow-green | Autofluorescent | Yellow-green | C[C@H](NC(=O)[C@@H]1CCCN1C(=O)CN)C(=O)n1nc2c3c(c(Cl)ccc31)C(=O)c1ccccc1-2 [Compound 10, Gly-L-Pro-L-Ala-5-chloro-1-anthra[1,9-cd]pyrozol-6(2H)-one] |  | 
 |  |  | no evidence of hydrolysis |  |  |  |  |  | C[C@H](N)C(=O)N[C@@H](C)C(=O)N[C@H](Cc1ccccc1)C(=O)NNc1cccc2c1C(=O)c1ccccc1C2=O [Compound 31, L-Ala-L-Ala-D-Phe-1-anthraquinonylhydrazide] |  | 
 |  |  | no evidence of hydrolysis |  |  |  |  |  | C[C@H](NC(=O)[C@@H]1CCCN1C(=O)CN)C(=O)NNc1cccc2c1C(=O)c1ccccc1C2=O [Compound 16, Gly-L-Pro-L-Ala-1-anthraquinonylhydrazide] |  | 
 | Yellow-green | more effective than benzaldehyde itself | readily hydrolyzed | low to no background activity |  | Yellow-green |  | Yellow-green | C[C@H](N)C(=O)N[C@@H](C)C(=O)N[C@@H](Cc1ccccc1)C(=O)NNc1cccc2c1C(=O)c1ccccc1C2=O [Compound 27, L-Ala-L-Ala-L-Phe-1-anthraquinonylhydrazide] |  | 

SMILES | Autofluorescence of the final reaction product of TPP-1 histochemical staining (Benzaldehyde) | Color of the final reaction product of TPP-1 histochemical staining (Benzaldehyde) | Effectiveness of p-NBA and p-AA versus benzaldehyde with regard to precipitate density and color | Hydrolysis by endogenous TPP-1 in murine tissues | Specificity of TPP-1 detection / background activity | Autofluorescence of the final reaction product of TPP-1 histochemical staining (p-Anisaldehyde) | Color of the final reaction product of TPP-1 histochemical staining (p-Anisaldehyde) | Autofluorescence of the final reaction product of TPP-1 histochemical staining (p-Nitrobenzaldehyde) | Color of the final reaction product of TPP-1 histochemical staining (p-Nitrobenzaldehyde) | Sensitivity for detecting TPP-1 activity (combination with p-AA, purple precipitates in areas of high endogenous enzyme activity (e.g., kidney)) | Effectiveness as histochemical reagent for detecting TPP-1 (particularly when combined with p-anisaldehyde)
NCC(=O)N1CCC[C@H]1C(=O)N[C@@H](CO)C(=O)NNc1cccc2c1C(=O)c1ccccc1C2=O [Compound 20, Gly-L-Pro-L-Ser-1-anthraquinonylhydrazide] |  | Brown | more effective than benzaldehyde itself | readily hydrolyzed | low to no background activity |  | Dark Purple |  | Brown | most sensitive | most effective histochemical reagent
